Assay results: patent US20260256792A1, “TREATMENT OF CHRONIC SPONTANEOUS URTICARIA BY ADMINISTERING (R)-2-[3-[4-AMINO-3-(2-FLUORO-4-PHENOXY-PHENYL)PYRAZOLO[3,4-D]PYRIMIDIN-1-YL]PIPERIDINE-1-CARBONYL]-4-METHYL-4-[4-(OXETAN-3-YL)PIPERAZIN-1-YL]PENT-2-ENENITRILE” (priority 2023, published 2026)

Tested on: angioedema in CSU patients
Test: Phase 2 CSU study: angioedema activity score over 7 days (AAS7)
Type: in vivo, human
Conditions: 400 mg TID; for AAS7 % Change difference for rilzabrutinib vs. placebo LS Mean (95% CI) / AAS7 % Change from baseline LS Mean (SE) / AAS7 = 0, Non-responder n (%) / AAS7 = 0, OR (95% CI) for rilzabrutinib vs. placebo / AAS7 = 0, RRD (%) for rilzabrutinib vs. placebo (95% CI) / AAS7 Post-baseline Mean (SD) / Participants with AAS7 = 0, Responder n (%) / AAS7 Change difference for rilzabrutinib vs. placebo LS Mean (95% CI) / AAS7 Change from baseline LS Mean (SE): angioedema at baseline; for Non-responder n (%), AAS7 = 0 / OR (95% CI) for rilzabrutinib vs. placebo, AAS7 = 0 / RRD (%) for rilzabrutinib vs. placebo (95% CI), AAS7 = 0 / Responder n (%), AAS7 = 0: outlier removed
From the text: The study comprises a 12 week, randomized, double-blind, placebo-controlled, multi-center, dose-ranging efficacy and safety phase, followed by a 40 week open label extension (OLE) phase (see FIG. 1). The study consists of three phases and an optional OLE phase. […] The weekly angioedema activity score (AAS7) was proposed as a tertiary endpoint. […] Patients were to complete the AAS using the e-diary. The e-diary was to be used once daily on the same time of each day recording of participant's answers to the angioedema activity score over 7 days (AAS7) questionnaire.

CC(C)(C=C(C#N)C(=O)N1CCC[C@@H](n2nc(-c3ccc(Oc4ccccc4)cc3F)c3c(N)ncnc32)C1)N1CCN(C2COC2)CC1 [rilzabrutinib, (R)-2-[3-[4-amino-3-(2-fluoro-4-phenoxy-phenyl)pyrazolo[3,4-d]pyrimidin-1-yl]piperidine-1-carbonyl]-4-methyl-4-[4-(oxetan-3-yl)piperazin-1-yl]pent-2-enenitrile]
AAS7 % Change difference for rilzabrutinib vs. placebo LS Mean (95% CI) (Week 4, omalizumab-naïve): −49.61 (−90.06, −9.16) % | AAS7 % Change from baseline LS Mean (SE) (Week 4, omalizumab-naïve): −79.54 (14.89) % | AAS7 = 0, Non-responder n (%) (Week 4, omalizumab-naïve): 14 (60.9) n (%) | AAS7 = 0, OR (95% CI) for rilzabrutinib vs. placebo (Week 4, omalizumab-naïve): 1.519 | AAS7 = 0, RRD (%) for rilzabrutinib vs. placebo (95% CI) (Week 4, omalizumab-naïve): 7.3 % | AAS7 Post-baseline Mean (SD) (Week 4, omalizumab-naïve): 11.73 (16.82) | Participants with AAS7 = 0, Responder n (%) (Week 4, omalizumab-naïve): 9 (39.1) n (%) | AAS7 % Change from baseline LS Mean (SE) (Week 5, ITT): −69.87 (9.90) % | AAS7 Change difference for rilzabrutinib vs. placebo LS Mean (95% CI) (Week 5, ITT): −9.32 (−20.56, 1.93) | AAS7 Change from baseline LS Mean (SE) (Week 5, ITT): −38.91 (4.22) | Non-responder n (%), AAS7 = 0 (Week 5, omalizumab-naïve): 14 (41.2) n (%) | OR (95% CI) for rilzabrutinib vs. placebo, AAS7 = 0 (Week 5, omalizumab-naïve): 1.359 | RRD (%) for rilzabrutinib vs. placebo (95% CI), AAS7 = 0 (Week 5, omalizumab-naïve): 7.5 % | Responder n (%), AAS7 = 0 (Week 5, omalizumab-naïve): 20 (58.8) n (%) | AAS7 % Change difference for rilzabrutinib vs. placebo LS Mean (95% CI) (Week 5, omalizumab-naïve): −17.62 (−46.15, 10.90) % | AAS7 = 0, Non-responder n (%) (Week 5, omalizumab-naïve): 13 (56.5) n (%) | AAS7 = 0, OR (95% CI) for rilzabrutinib vs. placebo (Week 5, omalizumab-naïve): 1.550 | AAS7 = 0, RRD (%) for rilzabrutinib vs. placebo (95% CI) (Week 5, omalizumab-naïve): 9.8 % | AAS7 Post-baseline Mean (SD) (Week 5, omalizumab-naïve): 10.83 (15.39) | Participants with AAS7 = 0, Responder n (%) (Week 5, omalizumab-naïve): 10 (43.5) n (%) | AAS7 Change difference for rilzabrutinib vs. placebo LS Mean (95% CI) (Week 6, ITT): −11.42 (−23.52, 0.68) | AAS7 Change from baseline LS Mean (SE) (Week 6, ITT): −38.03 (4.48) | AAS7 Post-baseline Mean (SD) (Week 6, ITT): 12.73 (19.47) | Non-responder n (%), AAS7 = 0 (Week 6, omalizumab-naïve): 14 (41.2) n (%) | OR (95% CI) for rilzabrutinib vs. placebo, AAS7 = 0 (Week 6, omalizumab-naïve): 1.334 | RRD (%) for rilzabrutinib vs. placebo (95% CI), AAS7 = 0 (Week 6, omalizumab-naïve): 6.5 % | Responder n (%), AAS7 = 0 (Week 6, omalizumab-naïve): 20 (58.8) n (%) | AAS7 % Change difference for rilzabrutinib vs. placebo LS Mean (95% CI) (Week 6, omalizumab-naïve): −15.46 (−46.06, 15.15) % | AAS7 = 0, Non-responder n (%) (Week 6, omalizumab-naïve): 12 (52.2) n (%) | AAS7 = 0, OR (95% CI) for rilzabrutinib vs. placebo (Week 6, omalizumab-naïve): 1.874 | AAS7 = 0, RRD (%) for rilzabrutinib vs. placebo (95% CI) (Week 6, omalizumab-naïve): 13.5 % | AAS7 Post-baseline Mean (SD) (Week 6, omalizumab-naïve): 13.55 (20.58) | Participants with AAS7 = 0, Responder n (%) (Week 6, omalizumab-naïve): 11 (47.8) n (%) | AAS7 % Change difference for rilzabrutinib vs. placebo LS Mean (95% CI) (Week 7, ITT): −22.57 (−53.40, 8.26) % | AAS7 % Change from baseline LS Mean (SE) (Week 7, ITT): −68.52 (11.69) % | AAS7 Change difference for rilzabrutinib vs. placebo LS Mean (95% CI) (Week 7, ITT): −9.86 (−21.60, 1.88) | AAS7 Change from baseline LS Mean (SE) (Week 7, ITT): −37.16 (4.45) | AAS7 Post-baseline Mean (SD) (Week 7, ITT): 12.07 (15.62) | Non-responder n (%), AAS7 = 0 (Week 7, omalizumab-naïve): 15 (44.1) n (%) | OR (95% CI) for rilzabrutinib vs. placebo, AAS7 = 0 (Week 7, omalizumab-naïve): 1.277 | RRD (%) for rilzabrutinib vs. placebo (95% CI), AAS7 = 0 (Week 7, omalizumab-naïve): 6.5 % | Responder n (%), AAS7 = 0 (Week 7, omalizumab-naïve): 19 (55.9) n (%) | AAS7 % Change difference for rilzabrutinib vs. placebo LS Mean (95% CI) (Week 7, omalizumab-naïve): −20.11 (−53.85, 13.63) % | AAS7 % Change from baseline LS Mean (SE) (Week 7, omalizumab-naïve): −67.11 (12.58) % | AAS7 = 0, Non-responder n (%) (Week 7, omalizumab-naïve): 13 (56.5) n (%) | AAS7 = 0, OR (95% CI) for rilzabrutinib vs. placebo (Week 7, omalizumab-naïve): 1.351 | AAS7 = 0, RRD (%) for rilzabrutinib vs. placebo (95% CI) (Week 7, omalizumab-naïve): 7.2 % | AAS7 Post-baseline Mean (SD) (Week 7, omalizumab-naïve): 12.43 (15.87) | Participants with AAS7 = 0, Responder n (%) (Week 7, omalizumab-naïve): 10 (43.5) n (%) | AAS7 % Change difference for rilzabrutinib vs. placebo LS Mean (95% CI) (Week 8, ITT): −22.25 (−53.63, 9.12) % | AAS7 % Change from baseline LS Mean (SE) (Week 8, ITT): −74.30 (11.67) % | AAS7 Change difference for rilzabrutinib vs. placebo LS Mean (95% CI) (Week 8, ITT): −11.02 (−22.54, 0.50) | AAS7 Change from baseline LS Mean (SE) (Week 8, ITT): −39.35 (4.28) | AAS7 Post-baseline Mean (SD) (Week 8, ITT): 11.17 (12.56) | Non-responder n (%), AAS7 = 0 (Week 8, omalizumab-naïve): 19 (55.9) n (%) | OR (95% CI) for rilzabrutinib vs. placebo, AAS7 = 0 (Week 8, omalizumab-naïve): 0.964 | RRD (%) for rilzabrutinib vs. placebo (95% CI), AAS7 = 0 (Week 8, omalizumab-naïve): −0.9 % | Responder n (%), AAS7 = 0 (Week 8, omalizumab-naïve): 15 (44.1) n (%) | AAS7 % Change from baseline LS Mean (SE) (Week 8, omalizumab-naïve): −73.05 (12.72) % | AAS7 = 0, Non-responder n (%) (Week 8, omalizumab-naïve): 17 (73.9) n (%)
